Laboratory results: paper PMC8427247, “Actinobacillus utilizes a binding protein–dependent ABC transporter to acquire the active form of vitamin B6” (The Journal of Biological Chemistry, 2021)

Tests used:
P5PA WT [1] = biological target: T1, P5PA WT (Actinobacillus pleuropneumoniae, UniProt B0BUC2); experiment: Isothermal titration calorimetry (ITC), ligand titrated into P5PA; format: binding
Procedure: The purification method described in the P5PA protein purification section was modified as follows in order to purify apo-P5PA for ITC. Before elution, P5PAwas denatured in the gravity column. To denature P5PA, 6 M guanidine hydrochloride (GdHCl) was applied to the column, after which a refolding step was performed by stepwise addition of 4.5 M GdHCl, 3 M GdHCl, and finally 1.5 M GdHCl. The protein was then washed with lysis buffer and eluted with elution buffer ([15]). The subsequent purification steps were the same as previously described.
ITC was performed using an auto-iTC200 (Microcal) at the Structure and Biophysical Core Facility within the Peter Gilgan Centre for Research & Learning (Hospital for Sick Children, Toronto, Canada). Runs consisted of titrating ligand loaded into the injection syringe against purified protein, which was loaded into the sample cell. About 45 μM of purified P5PA was stored in ITC buffer (20 mM Tris, pH 8, and 100 mM NaCl) at 4 °C. The same buffer was used to make solutions of 300 μM G6P, 300 μM P5P, and 45 μM bovine serum albumin. P5PA, bovine serum albumin, and ITC buffer alone were titrated with P5P or G6P. The parameter setting was 2 μl/injection for a total of 20 injections. Data applied to calculate binding constants were referenced against runs performed with ligand alone to control for the heat of ligand solvation.

P5PA WT [2] = biological target: T1, P5PA WT; experiment: Microscale thermophoresis (MST) with fluorescently labeled P5PA; format: binding
Procedure: (§1) P5PA was fluorescently labeled using RED-NHS Second Generation Protein Labeling Kit (NanoTemper). Briefly, 90 μl of purified apo-P5PA at 10 μM was mixed with 10 μl of the provided labeling dye at 300 μM. The mixture was incubated in dark for 30 min and loaded to a special gravity column that is pre-equilibrated in PBS with 0.05% Tween-20 (PBST). After washing the column with 550 μl of PBST, another 450 μl of PBST was added to elute the fluorescently labeled apo-P5PA. The yield of the labeled P5PA was determined by 280-nm readings made on a Nanodrop.
(§2) A target compound was successively diluted in PBST by a dilution factor of two to make a total of 16 different concentrations. Then, 10 μl of the labeled P5PA was added to an equal volume of the diluted compounds and loaded to standard capillaries (NanoTemper). The Binding Affinity Mode of Monolith NT.115 (NanoTemper) was used to detect fluorescence changes and deduct Kd.
(§3) Supplementary Table2. The concentrations of protein and compounds used in MST
(§4) Labeled Protein Concentration Compound Highest Working
(§5) P5PA 25 Pyridoxal-5’-phosphate (P5P) 1.40 µM
(§6) P5PA 25 Pyridoxamine (PM) 448 mM

AfuA E229A = system: AfuA E229A; set-up: method as in PMID 26295949; conditions: AfuA E229A mutant; cited from earlier work
AfuA H205A = system: AfuA H205A; set-up: method as in PMID 26295949; conditions: AfuA H205A mutant; cited from earlier work
AfuA D206A = system: AfuA D206A; set-up: method as in PMID 26295949; conditions: AfuA D206A mutant; cited from earlier work
P5PA H203A = biological target: T2, P5PA H203A (Actinobacillus pleuropneumoniae, UniProt B0BUC2, H229A); experiment: Microscale thermophoresis (MST) with fluorescently labeled P5PA mutant; format: binding
T2 sequence (B0BUC2 26-343 H229A): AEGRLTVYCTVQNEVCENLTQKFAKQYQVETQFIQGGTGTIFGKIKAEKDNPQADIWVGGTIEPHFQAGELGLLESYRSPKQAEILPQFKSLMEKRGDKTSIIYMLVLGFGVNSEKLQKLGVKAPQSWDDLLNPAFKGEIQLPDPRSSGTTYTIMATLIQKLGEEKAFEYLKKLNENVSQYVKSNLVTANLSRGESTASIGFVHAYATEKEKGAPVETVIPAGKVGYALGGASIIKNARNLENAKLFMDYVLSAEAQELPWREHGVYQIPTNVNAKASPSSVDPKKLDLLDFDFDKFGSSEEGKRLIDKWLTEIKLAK
Procedure: as §1, §2, §3, §4, §5, §6

P5PA T149A = biological target: T3, P5PA T149A (Actinobacillus pleuropneumoniae, UniProt B0BUC2, T175A); experiment: as above; format: binding
T3 sequence (B0BUC2 26-343 T175A): T2 sequence (B0BUC2 26-343 H229A)
Procedure: as §1, §2, §3, §4, §5, §6

P5PA Y103A = biological target: T4, P5PA Y103A (Actinobacillus pleuropneumoniae, UniProt B0BUC2, Y129A); experiment: as above; format: binding
T4 sequence (B0BUC2 26-343 Y129A): T2 sequence (B0BUC2 26-343 H229A)
Procedure: as §1, §2, §3, §4, §5, §6

[3] = system: E. coli K-12 ΔpdxB mutant; experiment: E. coli growth assay in M9 minimal media supplemented with P5P; format: cell-based, Escherichia coli
Procedure: The ΔpdxB mutant of E. coli K-12 strain was obtained from the Keio collection ([45]). The ΔpdxB mutant was transformed with either pSC101, pSC101-P5PAB, or pSC101-P5PAB + AfuC and grown in LB broth overnight at 37 °C with shaking. The starters were then washed twice with M9 medium and inoculated at an absorbance of 0.05 at 600 nm into M9 medium supplemented with P5P. The P5P concentrations used were 0, 1, 2.5, and 5 μM. Growth assays were performed in both culture tubes and 100-well microplates ([15], [17]). For cell growth in culture tubes, 5 ml of P5P-supplemented M9 was used, and readings of absorbance at 600 nm were measured after a 23-h incubation at 37 °C with shaking. For cell growth in 100-well microplates, 200 μl of P5P-supplemented M9 was applied to each well, and microplates were incubated in a Bioscreen C microplate reader (Growth Curves USA) at 37 °C with shaking. Absorbance values at 600 nm were measured every 15 min for a time course of 40 h.

[4] = system: A. pleuropneumoniae pdxS and pdxT disrupted mutants; set-up: method as in PMID 28448619; conditions: supplementation with 10 μM P5P; cited from earlier work
[5] = system: WT strain of E. coli K-12; experiment: E. coli growth assay in M9 minimal media supplemented with P5P; format: cell-based, Escherichia coli; conditions: P5P 0 to 10 μM, 24 h incubation
[6] = MST, P5PA WT, n = 3, read-out: Kd

In the case of `O=C[C@H](O)[C@@H](O)[C@H](O)[C@H](O)COP(=O)(O)O` [G6P, glucose-6-phosphate], the binding activity (P5PA WT [1]; ITC, 300 μM ligand into 45 μM P5PA) is reported as “no significant binding activity”, the “released heat for each titration” value (P5PA WT [1]; ITC, 300 μM ligand into 45 μM P5PA, insufficient to calculate a dissociation constant) is reported as “approximately 3 kJ/mol” and the Kd (P5PA WT [2]; [6]) is reported as 11000 ± 3000 µM. For the same compound, the binding affinity (AfuA E229A) was “undetectable”, the binding affinity (AfuA H205A) was “undetectable” and the binding affinity (AfuA D206A) was “undetectable”.
With `Cc1ncc(COP(=O)(O)O)c(C=O)c1O` [P5P, pyridoxal-5′-phosphate] the Kd (P5PA H203A) was 10 ± 4 µM, the Kd (P5PA T149A) was 1.3 ± 0.3 µM and the Kd (P5PA Y103A) was 17 ± 8 µM. For the same compound, the “growth defects of the four transformants and the ΔpdxB mutant” value ([3]; M9, P5P at 5 μM) was “partially restored”, the “growth of ΔpdxB mutant expressing pSC101-P5PAB + AfuC” value ([3]; M9, P5P at 1 and 2.5 μM, p < 0.01, two-tailed t test) was “rescued” and the “growth of ΔpdxB mutant” value ([3]; M9 minimal media, P5P 0 to 10 μM, 24 h incubation) was “severe growth deficiency in all conditions except P5P concentrations of 5 and 10 μM”. For the same compound, the “growth of pdxS/pdxT mutants” value [4] was “rescued growth”, the Kd (P5PA WT [1]) was 0.036 ± 0.007 µM and the “growth of WT strain” value [5] was “not affected by the concentration of supplemented P5P”. It also gave a Kd (P5PA WT [2]) of 0.028 ± 0.015 µM.
`Cc1ncc(CO)c(C=O)c1O` [PL, pyridoxal] gave a Kd (P5PA WT [2]; [6]) of 13000 ± 4000 µM.
`Cc1ncc(CO)c(CN)c1O` [PM, pyridoxamine] gave a Kd (P5PA WT [2]; [6]) of 8000 ± 4000 µM.
